From patent publication US12415939B2, “Nano-adhesive and surface primer compound and use thereof” (The Regents of the University of California, priority 2015, dated 2025)

How the values were obtained:
[1] = SFA adhesion of cured PMA resin between primer-treated mica surfaces
Method: Atomically-smooth muscovite mica sheets were freshly cleaved (thickness of 2-5 μm) and attached on another large freshly cleaved mica backing sheet under a laminar flow hood and placed in a desiccator for clean storage. To ensure use of a fresh surface for each experiment, mica was peeled away from the backing sheet and glued on cylindrical disks using an epoxy glue (EPON 1004 F® from Exxon Chemicals). In each experiment, the mica surfaces were treated with one of the primer solutions, as described for the lap shear experiments, and then mounted in the SFA in a cross cylindrical geometry. In contrast to typical SFA experiments, which use an interferometric method to calculate the disk-disk separation distances and thus the interaction forces, in the SFA used here for adhesion testing, the disk separations were directly measured using semiconductor strain-gauged double cantilever springs (k=1000-10000 N/m)(see FIG. 67). After separating the surfaces, 100 […]1 of comonomer blend was injected between the two surfaces. Then, ˜600 mN of load was applied, followed by visible light curing for 1 min using the portable dental curing lamp (see FIG. 54G). Adhesion strength of cured polymer toward the mica was measured by detaching (unloading) two surfaces. All loading and unloading were performed using a coarse micrometer at the velocity of […]. The SFA measurements were repeated at least 5 times for each condition.

[2] = AFM height profiles of adsorbed primers; format: physicochemical
Method: Each primer solution (1 wt %) was prepared in methanol (for P1-P3) or DMSO (for P4). The primer solution was drop cast onto a freshly cleaved mica or glass surface, and kept at room temperature for 1 min. Subsequently, the surfaces were thoroughly rinsed with the respective solvents and dried with argon. All images, surface profiles and surfaces roughnesses were collected using an Asylum MFP-3D standard system (Asylum Research, Santa Barbara, CA) using silicon cantilevers (FORTGG-50, Applied NanoStructures, Santa Clara, CA) (FIGS. 48C and 49).

[3] = Lap shear test of cured PMA resin on primed silica/glass; conditions: second value of each pair (silica)
Method: (§1) 1 wt % primer solution was spread on mica, glass, tooth enamel, or a silicon wafer and incubated for 1 min, followed by thorough washing with methanol (for MDP, P1-P3) or DMSO (for P4) and drying by flowing nitrogen. The surfaces were exposed to a basic aqueous solution (pH 9, using sodium hydroxide), incubated for 1 min, and drying by flowing nitrogen (see FIG. 52). The methacrylic comonomer blend (Bis-GMA, TEGDMA, DMAEMA and CQ) was packed in a gelatin capsule (size #4, 5-mm diameter, Torpac Inc.) and placed up on top of the primer-treated substrates. The comonomer blend was cured (or crosslinked) for 1 min using a portable dental curing lamp (Foshan Liang Ya Dental Co., LY-A180, 420-480 nm, 1200-2000 mW·cm^−2) (see FIG. 53). Uniaxial compression was applied to the capsule at a rate of 0.05 inch min^−1 using a materials testing system (MTS Bionix 200) until the capsules are separated from the substrate. The lap shear fracture measurements were repeated at least 10 times for each condition.

[4] = Lap shear test of cured PMA resin on primed mica; conditions: first value of each pair (mica)
Method: as §1

[5] = Lap shear test of cured PMA resin on primed tooth enamel; parameters: species or system human
Method: as §1

[6] = QCM-D adsorption of primers; format: physicochemical
Method: A ‘static cell’ (often called ‘Open Module’) QCM-D (Q-Sense, Biolin Scientific) was employed to quantitatively evaluate the adsorption of each primer onto SiO2 surface using a quartz sensor (QSX 303, Biolin Scientific). Changes in resonance frequency (ΔF) and dissipation (ΔD) of the SiO2 were recorded and used to measure the adsorbed mass and layer viscoelasticity, respectively, of the primer deposited on the sensor. In detail, pure solvent (100 μl) was dropped onto the sensor and equilibrated for ˜20-30 min. Then, 2 wt % primer solution (100 μl) was dropped onto the sensor (this is labeled “Solution Drop-in” in FIG. 51) and equilibrated until the frequency and dissipation signals stabilized. To remove unbound primers, the sensor was rinsed with solvents (this is labeled “Solvent Rinsing” in FIG. 51) and equilibrated until frequency and dissipation signals stabilized.
Mass loss of P3 and P4 during the rinsing was negligible compared to P2 which lost 60% of initial mass, indicating outstanding adsorption efficiency of catechol-containing primers on SiO2 surfaces even compared to mussel foot protein adsorption (˜30% loss of mfp-3s^3). The priming thickness of P4 estimated by QCM-D is ˜3.1 nm which agrees with the average height of AFM images (˜3.5 nm), assuming that QCM-D measures the average thickness of a uniform layer. The smaller average thickness of P4 (˜3.1 nm) compared to the molecular contour length (˜4.8 nm) may be attributed to the flexible alkyl spacer in P4. The possibility of a softer, more flexible layer with P4 is supported by a higher change in dissipation (ΔD) compared to other primers.

[7] = Surface forces apparatus (SFA) cohesion/adhesion between thin films on mica; format: physicochemical
Method: The interaction between two surfaces can be measured with nano-Newton level force resolution and Angstrom level resolution in the separation distance between the surfaces. The details of the SFA techniques have been describe in a work by Israelachvili et al. In a typical SFA experiment (FIG. 2C), the distance and the force between the surfaces are measured simultaneously. To begin with, the instrument is calibrated at large separation distances. When the two surfaces are not interacting, i.e., they are separated by large distances, the change in the separation between them is equal to the distance through which the motor moves the lower surface towards or away from the upper surface (or the upper surface driven by the piezo-tube moves towards the lower surface). However, once the surfaces are close enough to start interacting with each other, the measured separation distance deviates from the expected separation calibrated when there is no force between the surfaces. This deviation is due to the deflection of the double cantilever spring and is directly proportional to the force acting normally between the two opposing surfaces. Thus the normal force can be measured using Hooke's law, F=kΔx, where k is the spring constant of the double-cantilever spring and Δx=Dactual−Dapplied is the deflection of the spring, determined by taking the difference between the applied change in position of one of the surfaces Dapplied and the actual change in distance measured between the surfaces Dactual. The actual distance, Dactual, between the surfaces can be measured by multiple beam interferometry (MBI) and will be discussed below.
The distance between the surfaces, shape of the interface and the refractive index of the media between the surfaces can be accurately determined by Multiple Beam Interferometry (MBI) technique. In this technique, white light is directed through two back-silvered mica surfaces (or uniform and same thickness). As a white light passes between the mica surfaces, it undergoes interference due to the optical trap set up by the back silver on each of these surfaces giving rise to discrete wavelengths of light (FIG. 2C). These wavelengths of light are resolved in a spectrometer creating interference fringes known as ‘fringes of equal chromatic order’ (FECO). Since mica is birefringent, the FECO appears as doublets and termed as β and γ. Alternate fringes are termed as odd and even fringes with odd fringes having nodes at the center and even fringes with anti-nodes in the center. The FECO is then recorded on a camera and analyzed to determine the distance between the surfaces using the following equations: […]
The adhesion/cohesion energy of the synthetic zwitterionic molecules was investigated in SFA (SurForce LLC, Santa Barbara, CA). Two molecularly smooth freshly cleaved back silvered mica surfaces glued on cylindrical silica discs of radius of curvature, R˜2 cm, were mounted in the SFA and 50 μL of a colloidal dispersion of the synthetic molecules in DI water were injected between the surfaces at different concentrations (C=0.5-5 mM) and the forces between the thin films of the molecules were measured by Multiple Beam Interferometry (MBI). The adhesion forces between Z-Cat-C10 molecules on various surfaces, e.g., silica and copper, were also measured by AFM (MFP-3D, Asylum research, Goleta, CA) in DI water and ambient conditions, respectively, at room temperature. AFM probes with a silicon dioxide particle (10, 5, and 1 μm, respectively) on a silicon nitride (SN) cantilever-0.6 N m^−1 were purchased from Novascan Technologies, Inc (Ames, IA). Cantilever spring constants were measured for each force run. Images of Z-Cat-C10 coating on silicon wafer and copper plates were visualized in an AFM. […]

[8] = Cyclic voltammetry of catechol oxidation; format: physicochemical; conditions: 5 mM in DI water
Method: (§2) Cyclic voltammetry was performed on a Versastat 3 potentiostat from Ametek Co. These analyses were carried out using a three-electrode cell: a Pt wire as the counter electrode, an Ag/AgCl reference electrode, and a Carbon paste electrode (CPE) served as the working electrode. CPE is the best choice for adhesive materials because of its ability to be completely polished before each experiment. Catechol auto-oxidation was avoided by performing all electrochemical experiments with degassed deionized water in a glove bag under argon. Scan rate 1 mV s-1 was used for all experiments. CV of 5 mM synthesized polymers and 5 mM methyl catechol, a simple catechol-containing compound, were compared. Oxidation of Catechol carrying molecules occurred at more positive potentials than methyl catechol, indicating the unique structure of the dispersions provide shielding effects that stabilized catechol groups (FIG. 3).
Cyclic voltammetry was performed on a Versastat 3 potentiostat from Ametek Co. (Berwyn, PA). These analyses were carried out using a three-electrode cell: a Pt wire as the counter electrode, an Ag/AgCl reference electrode, and a Carbon paste electrode (CPE) served as the working electrode. CPE is the best choice for adhesive materials because of its ability to be completely polished before each experiment.
as §2, with “s^−1” for “s-1”, “molecules” for “polymers”, “groups. Z-Cat-Ben with an oxidation peak at 840 mV is more resistant to oxidation than the other species” for “groups”, “42).” for “3).”

[9] = OFET characterization (saturation hole mobility)
From the text: The OFETs were fabricated onto nano-grooved SiO2 substrates prepared by rubbing n^++Si (500 μm)/SiO2 (300 nm) substrate (International Wafer Services Co.) with a diamond lapping disc with particle sizes of 100 nm (Allied High Tech Products Inc.) as described in detail in the previous reports. The Ni (5 nm)/Au (50 nm) source and drain electrodes were patterned on the SiO2 dielectrics through a conventional photolithography process. For OFETs with Ni source and drain electrodes, an additional Ni (10 nm) layer was deposited on top of the pre-deposited Au electrodes. All metal electrodes were deposited by electron beam evaporation at 7×10^−7 Torr. Then, the substrates were sonicated in acetone and isopropanol for cleaning, and were kept in an oven at >100° C. for overnight. After ultraviolet/ozone treatment of pre-cleaned nano-grooved SiO2 substrates for 10 min, the substrates were passivated with the Z-Cat-Ben or Z-Cat-Ben-F SAM by dropping SAM water solution (5 mM) onto the substrates for ˜1 min. The substrates were subsequently rinsed with deionized water for ˜1 min, and were kept in a low vacuum for 10 min to remove residual water. The PCDTPT (1-Material Inc.) was then cast from a chlorobenzene solution (0.25 mg mL^−1) through the sandwich casting in a nitrogen-filled glove box. The devices were then cured at 200° C. for 1 min prior to measurements, and were tested using a probe station (Signatone Co.) in a nitrogen-filled glove box. Data were collected by a Keithley 4200 system.
The field-effect mobilities in the saturation regime were extracted using the following equation, IDS=(W/2L)Cμ(VGS−VT)^2 (7) where, W is the channel width, L is the channel length, C is the gate dielectric capacitance per unit area, μ is the carrier mobility in the saturation regime, IDS is the drain-source current, and VGS is the gate-source voltage. Channel width/length is 1000/200 μm for the devices used in this study. Transistor Characteristics of OFETs with Z-Cat-Ben and Z-Cat-Ben-F: Contact Angle Measurements: […]

[10] = Contact angle measurements on SAM-modified substrates; format: physicochemical; conditions: SAM-modified nano-grooved SiO2
Method: The nano-grooved SiO2 substrates passivated with Z-Cat-Ben or Z-Cat-Ben-F SAMs were prepared with the same procedure described above. For the reference substrate, the pre-cleaned and ultraviolet/ozone-treated (for 10 min) nano-grooved SiO2 substrate was passivated with n-decyltrichlorosilane (Gelest Inc.) in toluene solution (1% by volume) at 80° C. for 20 min in ambient air. Then, the substrate was subsequently sonicated in toluene and rinsed with additional toluene several times. Anhydrous chlorobenzene (50 μL) was used as a droplet dropping on the substrates. All contact angle images were taken at the direction perpendicular to nano-grooves in the substrates using Dataphysics OCA 15EC goniometer.

SMILES | increase in adhesion vs plain mica (no primer) [1] [fold] | adhesion pressure Pad ([1]; n=5) [kPa] | adsorption seen by AFM ([2]; 1 wt.% solution, mica and glass) | AFM height ([2]; mica) [nm] | lap shear strength σshear,max [3] [MPa] | lap shear strength σshear,max [4] [MPa] | lap shear strength σshear,max [5] | thickness from QCM-D [6] [nm] | surface concentration of adsorbed layer ([6]; Sauerbrey, after rinsing) [ng/cm^2] | mass loss during rinsing ([6]; of initial mass) | cohesion energy Wc between SAMs ([7]; 5 mM in DI water, mica) [mJ/m^2] | hard-wall thickness ([7]; SAMs from 5 mM, mica) [nm] | SAM thickness on each mica surface ([7]; half of hard-wall) [nm] | stability in water to oxidation (shelf life) [8] | saturation hole mobility μ ([9]; Au source and drain electrodes) [cm^2 V^−1 s^−1] | saturation hole mobility ([9]; Ni source and drain electrodes) [cm^2 V^−1 s^−1] | contact angle θ of chlorobenzene droplet [10] [°]
C=CC(=O)OCCCCCCCCOC(=O)CCc1ccc(O)c(O)c1 [P4, 8-((3-(3,4-dihydroxyphenyl)propanoyl)oxy)octyl acrylate] | ~4 | 81.7±18.5 | densely primed | ~3.5 | 4.5±0.5 | 0.9±0.1 | 3.0±0.3 MPa | ~3.1 | 345 | negligible | – | – | – | – | – | – | –
C=CC(=O)OCCC[Si](OC)(OC)OC [Silane, 3-trimethoxysilylpropyl acrylate, reference compound] | – | – | – | – | 3.8±1.1 | 0.9±0.4 | no increase in the lap shear strength | – | – | – | – | – | – | – | – | – | –
C[N+](C)(CCCc1cc(C(F)(F)F)cc(C(F)(F)F)c1)CCOP(=O)([O-])OCCCc1ccc(O)c(O)c1 [Z-Cat-Ben-F] | – | – | – | – | – | – | – | – | – | – | 3.3±1.0 | 2.6±0.4 | ~1.3 | stable (shelf life) in water to oxidation | 26±5 | 46±4 | < 10
